A value given as a limit tells only on which side of the number the result lay.

This test concerns γ-glutamyl carboxylation reaction (human Gas6 in Gas6-HEK293 cells). Description: Inhibitory action on γ-glutamyl carboxylation reaction (secreted γ-glutamyl carboxylated Gas6 by ELISA). It is filed as cell-based. The settings on record: vitamin K2 100 nM, exposure 18 to 20 hours, ELISA absorbance at 620 nm, read-out: IC50 (50% inhibitory concentration for the γ-glutamyl carboxylation reaction). The protocol:
Measurement of Inhibitory Action on γ-Glutamyl Carboxylation Reaction
Cells were used that expressed Gas6 excreted outside the cells when subjected to γ-glutamyl carboxylation, and inhibitory action on γ-glutamyl carboxylation reaction was assessed by measuring the secreted amount of extracellular Gas6 by ELISA method.
(A) Preparation for Assay Plate Containing Solid-Phase Anti-Human Gas6 Antibody
Goat anti-human Gas6 antibody (R&D Systems, Inc.) was diluted to 1 μg/ml with Dulbecco's phosphate-buffered saline, and 40 μl aliquots thereof were dispensed into each well of a 384-well microplate. After immobilizing the antibody to the solid phase by allowing it to stand at 4° C. overnight or at room temperature for 2 hours or more, each well was washed three times with wash buffer (10 mM Tris-HCl pH 7.4, 150 mM sodium chloride, 0.05% Tween20). After removing the supernatant, 80 μl aliquots of a 1% aqueous solution of Block Ace (Dainippon Sumitomo Pharma) were dispensed into each well and allowed to react at room temperature for 1 hour or more.
(B) Exposure of Test Compounds to Cells Stably Expressing Human Gas6
Cells that stably express human Gas6 (Gas6-HEK293), which were prepared by inserting human Gas6 gene (inserted between SalI and NotI within multiple cloning sites of pCIneo expression vector) into HEK293 cells, were grown and sub-cultured using Dulbecco's modified Eagle's medium (DMEM) containing 10% fetal calf serum (FCS). On the day before ELISA measurement, the Gas6-HEK293 cells were detached with trypsin-EDTA, dispersed in DMEM containing 10% FCS, and disseminated into each well of a 384-well, collagen type I-coated plate (Becton-Dickinson) in 30 μl aliquots containing 1.0×10^4 cells each, followed by culturing for 3 to 4 hours at 5% CO2 and 37° C. 30 μl aliquots of DMEM containing test compound solutions, prepared at various concentrations by dissolving in DMSO, and vitamin K2 at 0.1% and 100 nM, respectively (indicating final concentrations in both cases) were added to each well followed by additionally culturing for 18 to 20 hours.
(C) Quantification of γ-Glutamyl Carboxylated Gas6 by ELISA and Calculation of 50% Inhibitory Concentrations of γ-Glutamyl Carboxylation Reaction
After removing the 1% Block Ace aqueous solution from the preliminarily prepared assay plates containing solid phase anti-human Gas6 antibody, the culture supernatant of Gas6-HEK293 cells exposed to the test compounds was collected and 40 μl aliquots were dispensed into each well followed by allowing to react at room temperature for 2 hours (Step 1). The culture supernatant was removed and each well was washed three times with wash buffer. Thereafter, the same washing procedure was carried out between Steps 2 and 3 and Steps 3 and 4. Subsequently, 40 μl aliquots of mouse anti-human […] antibody (American Diagnostica inc.), adjusted to 0.5 μg/ml with immunoreaction buffer (100 mM Tris-HCl pH 7.4, 0.05% Tween20, 0.1% Block Ace), were dispensed into each well and allowed to react at room temperature for 1 hour (Step 2). Next, 40 μl aliquots of alkaline phosphatase-conjugated anti-mouse IgG antibody adjusted to 1.0 μg/ml with immunoreaction buffer were dispensed into each well and allowed to react at room temperature for 1 hour (Step 3). 40 μl aliquots of BluePhos Microwell (KPL) were dispensed into each well, and after incubating at room temperature for 10 minutes (Step 4), 20 μl aliquots of 5% EDTA were added to each well to stop the color development reaction, followed by measurement of absorbance at 620 nm (Step 5). […]
For orientation: An ELISA detects its analyte on a solid surface through an enzyme-linked reagent.
On to `C[C@H](NC(=O)c1nc2ccccc2nc1O)C(=O)N1CCC(Oc2ccc(Cl)cc2)CC1` [Example 1, N-{(1S)-2-[4-(4-Chlorophenoxy)piperidin-1-yl]-1-methyl-2-oxoethyl}-3-hydroxyquinoxaline-2-carboxamide], for which the IC50 was 8.4 nM.

On to `C[C@H](NC(=O)c1nc2ccccc2nc1O)C(=O)N1CCC(Oc2ccc(F)cc2)CC1` [Example 2, N-{(1S)-2-[4-(4-Fluorophenoxy)piperidin-1-yl]-1-methyl-2-oxoethyl}-3-hydroxyquinoxaline-2-carboxamide], for which the IC50 amounted to 6.6 nM.

Regarding `C[C@H](NC(=O)c1nc2ccccc2nc1O)C(=O)N1CCC(Oc2ccc(F)cc2F)CC1` [Example 3, N-{(1S)-2-[4-(2,4-Difluorophenoxy)piperidin-1-yl]-1-methyl-2-oxoethyl}-3-hydroxyquinoxaline-2-carboxamide], the IC50 came out at 3.5 nM.

On to `C[C@H](NC(=O)c1nc2ccccc2nc1O)C(=O)N1CCC(Oc2ccc(OC(F)(F)F)cc2)CC1` [Example 4, 3-Hydroxy-N-[(1S)-1-methyl-2-oxo-2-{4-[4-(trifluoromethoxy)phenoxy]piperidin-1-yl}ethyl]quinoxaline-2-carboxamide], for which the IC50 was 4.7 nM.

As to `C[C@H](NC(=O)c1nc2ccccc2nc1O)C(=O)N1CCC(Oc2ccc(F)cn2)CC1` [Example 6, N-[(1S)-2-{4-[(5-Fluoropyridin-2-yl)oxy]piperidin-1-yl}-1-methyl-2-oxoethyl]-3-hydroxyquinoxaline-2-carboxamide], the IC50 amounted to 74 nM.

`CC[C@H](NC(=O)c1nc2ccccc2nc1O)C(=O)N1CCC(Oc2ccc(F)cc2)CC1` [Example 8, N-[(1S)-1-{[4-(4-Fluorophenoxy)piperidin-1-yl]carbonyl}propyl]-3-hydroxyquinoxaline-2-carboxamide]: the IC50 turned out to be 1.8 nM.

For the molecule `CC[C@H](NC(=O)c1nc2ccccc2nc1O)C(=O)N1CCC(Oc2ccc(F)cc2F)CC1` [Example 9, N-[(1S)-1-{[4-(2,4-Difluorophenoxy)piperidin-1-yl]carbonyl}propyl]-3-hydroxyquinoxaline-2-carboxamide], the IC50 is less than 0.6 nM.

Regarding `CC[C@H](NC(=O)c1nc2ccccc2nc1O)C(=O)N1CCC(Oc2ccc(OC(F)(F)F)cc2)CC1` [Example 10, 3-Hydroxy-N-[(1S)-1-({4-[4-(trifluoromethoxy)phenoxy]piperidin-1-yl}carbonyl)propyl]quinoxaline-2-carboxamide], the IC50 is less than 0.6 nM.

Take `CC[C@H](NC(=O)c1nc2ccccc2nc1O)C(=O)N1CCC(Oc2ccc(C#N)cc2)CC1` [Example 11, N-[(1S)-1-{[4-(4-Cyanophenoxy)piperidin-1-yl]carbonyl}propyl]-3-hydroxyquinoxaline-2-carboxamide]: the IC50 was determined as 6.5 nM.

On to `CC[C@H](NC(=O)c1nc2ccccc2nc1O)C(=O)N1CCC(Oc2ccc(F)cn2)CC1` [Example 12, N-[(1S)-1-({4-[(5-Fluoropyridin-2-yl)oxy]piperidin-1-yl}carbonyl)propyl]-3-hydroxyquinoxaline-2-carboxamide], for which the IC50 is 4.2 nM.

Take `O=C(N[C@H](C(=O)N1CCC(Oc2ccc(F)cc2)CC1)C1CC1)c1nc2ccccc2nc1O` [Example 13, N-{(1S)-1-Cyclopropyl-2-[4-(4-fluorophenoxy)piperidin-1-yl]-2-oxoethyl}-3-hydroxyquinoxaline-2-carboxamide]: the IC50 amounted to 5.8 nM.

Turning to `O=C(N[C@H](C(=O)N1CCC(Oc2ccc(F)cn2)CC1)C1CC1)c1nc2ccccc2nc1O` [Example 14, N-[(1S)-1-Cyclopropyl-2-{4-[(5-fluoropyridin-2-yl)oxy]piperidin-1-yl}-2-oxoethyl]-3-hydroxyquinoxaline-2-carboxamide], the IC50 was determined as 25 nM.

Regarding `CC(C)[C@H](NC(=O)c1nc2ccccc2nc1O)C(=O)N1CCC(Oc2ccc(Cl)cc2)CC1` [Example 15, N-[(1S)-1-{[4-(4-Chlorophenoxy)piperidin-1-yl]carbonyl}-2-methylpropyl]-3-hydroxyquinoxaline-2-carboxamide], the IC50 worked out at 18 nM.

For `CC(C)[C@H](NC(=O)c1nc2ccccc2nc1O)C(=O)N1CCC(Oc2ccc(F)cc2)CC1` [Example 16, N-[(1S)-1-{[4-(4-Fluorophenoxy)piperidin-1-yl]carbonyl}-2-methylpropyl]-3-hydroxyquinoxaline-2-carboxamide], the IC50 came to 7 nM.

With `CC(C)[C@H](NC(=O)c1nc2ccccc2nc1O)C(=O)N1CCC(Oc2ccc(OC(F)(F)F)cc2)CC1` [Example 18, 3-Hydroxy-N-[(1S)-2-methyl-1-({4-[4-(trifluoromethoxy)phenoxy]piperidin-1-yl}carbonyl)propyl]quinoxaline-2-carboxamide], the IC50 was determined as 2.9 nM.

Take `CC(C)[C@H](NC(=O)c1nc2ccccc2nc1O)C(=O)N1CCC(Oc2ccc(C#N)cc2)CC1` [Example 19, N-[(1S)-1-{[4-(4-Cyanophenoxy)piperidin-1-yl]carbonyl}-2-methylpropyl]-3-hydroxyquinoxaline-2-carboxamide]: the IC50 came to 4.7 nM.

`CC(C)[C@H](NC(=O)c1nc2ccccc2nc1O)C(=O)N1CCC(Oc2ccc(F)cc2Br)CC1` [Example 21, N-[(1S)-1-{[4-(2-Bromo-4-fluorophenoxy)piperidin-1-yl]carbonyl}-2-methylpropyl]-3-hydroxyquinoxaline-2-carboxamide]: the IC50 worked out at 0.89 nM.

On to `CC(C)[C@H](NC(=O)c1nc2ccccc2nc1O)C(=O)N1CCC(Oc2ccc(F)cc2F)CC1` [Example 23, N-[(1S)-1-{[4-(2,4-Difluorophenoxy)piperidin-1-yl]carbonyl}-2-methylpropyl]-3-hydroxyquinoxaline-2-carboxamide], for which the IC50 is less than 0.6 nM.

`CC(C)[C@H](NC(=O)c1nc2ccccc2nc1O)C(=O)N1CCC(Oc2ccc(Cl)cn2)CC1` [Example 29, N-[(1S)-1-({4-[(5-Chloropyridin-2-yl)oxy]piperidin-1-yl}carbonyl)-2-methylpropyl]-3-hydroxyquinoxaline-2-carboxamide]: the IC50 was 7.2 nM.

For the molecule `CC(C)[C@H](NC(=O)c1nc2ccccc2nc1O)C(=O)N1CCC(N(C)c2ccc(F)cc2)CC1` [Example 30, N-[(1S)-1-({4-[(4-Fluorophenyl)(methyl)amino]piperidin-1-yl}carbonyl)-2-methylpropyl]-3-hydroxyquinoxaline-2-carboxamide], the IC50 turned out to be 1.7 nM.

For `CC(C)[C@H](NC(=O)c1nc2ccccc2nc1O)C(=O)N1CCC(Nc2ccc(F)cn2)CC1` [Example 34, N-[(1S)-1-({4-[(5-Fluoropyridin-2-yl)amino]piperidin-1-yl}carbonyl)-2-methylpropyl]-3-hydroxyquinoxaline-2-carboxamide], the IC50 came to 12 nM.

For `CC(C)[C@H](NC(=O)c1nc2ccccc2nc1O)C(=O)N1CCC(N(C)c2ccc(F)cn2)CC1` [Example 35, N-[(1S)-1-({4-[(5-Fluoropyridin-2-yl)(methyl)amino]piperidin-1-yl}carbonyl)-2-methylpropyl]-3-hydroxyquinoxaline-2-carboxamide], the IC50 was less than 0.6 nM.

Turning to `CC(C)[C@H](NC(=O)c1nc2ccccc2nc1O)C(=O)N1CCC(Oc2ccc(C(F)(F)F)cn2)CC1` [Example 36, 3-Hydroxy-N-{(1S)-2-methyl-1-[(4-{[5-(trifluoromethyl)pyridin-2-yl]oxy}piperidin-1-yl)carbonyl]propyl}quinoxaline-2-carboxamide], the IC50 is 1.8 nM.

On to `CC(C)[C@H](NC(=O)c1nc2ccccc2nc1O)C(=O)N1CCC(Oc2ccc(F)cn2)CC1` [Example 37, N-[(1S)-1-({4-[(5-Fluoropyridin-2-yl)oxy]piperidin-1-yl}carbonyl)-2-methylpropyl]-3-hydroxyquinoxaline-2-carboxamide], for which the IC50 stood at 5.4 nM.

For the origin of these results see patent publication US20110053933A1, “HYDROXYQUINOXALINECARBOXAMIDE DERIVATIVE” (DAIICHI SANKYO COMPANY, LIMITED, priority 2008, published 2011).
